This is an account of results in patent publication US11912693B2, “Compounds for modulating S1P1 activity and methods of using the same” (TREVENA, INC., priority 2017, dated 2024).

Assay [1] concerns the target T1, human sphingosine-1-phosphate receptor 1 (S1P1) (Homo sapiens (Human), UniProt P21453). Briefly: β-Arrestin2 recruitment assay (PathHunter), S1P1 CHO-K1 cells. It is filed as cell-based. Conditions: for Emax: CHO-K1, efficacy (SPAN) normalized to fingolimod, read-out: hS1P1 B-arrestin2 SPAN; for hS1P1 B-arrestin2 pEC50 / EC50: β-arrestin2 recruitment, S1P1 CHO-K1 cells; for EC50: read-out: hS1P1 B-arrestin2 pEC50 (converted). The essentials:
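Enzyme-fragment complementation read-out: agonist-driven β-arrestin2 binding to ProLink-tagged human S1P1 in stable CHO-K1 cells restores β-galactosidase, measured 1 h at room temperature after a 60 min 37° C. compound incubation. Potency as pEC50, efficacy relative to fingolimod (SPAN).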
Target sequence in this assay (P21453 whole entry, looked up, the tested form may be a part): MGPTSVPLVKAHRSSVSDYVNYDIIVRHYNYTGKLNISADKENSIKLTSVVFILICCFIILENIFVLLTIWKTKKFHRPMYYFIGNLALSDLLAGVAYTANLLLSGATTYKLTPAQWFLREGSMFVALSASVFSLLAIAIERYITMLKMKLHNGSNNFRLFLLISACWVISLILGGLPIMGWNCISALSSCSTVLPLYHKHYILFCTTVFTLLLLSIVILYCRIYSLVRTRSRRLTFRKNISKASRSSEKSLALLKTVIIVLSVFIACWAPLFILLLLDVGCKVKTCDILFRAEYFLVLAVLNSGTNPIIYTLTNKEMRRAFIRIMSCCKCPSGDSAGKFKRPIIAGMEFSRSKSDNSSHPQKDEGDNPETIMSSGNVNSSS
Target sequence in this assay (P32121 whole entry partner, looked up, the tested form may be a part): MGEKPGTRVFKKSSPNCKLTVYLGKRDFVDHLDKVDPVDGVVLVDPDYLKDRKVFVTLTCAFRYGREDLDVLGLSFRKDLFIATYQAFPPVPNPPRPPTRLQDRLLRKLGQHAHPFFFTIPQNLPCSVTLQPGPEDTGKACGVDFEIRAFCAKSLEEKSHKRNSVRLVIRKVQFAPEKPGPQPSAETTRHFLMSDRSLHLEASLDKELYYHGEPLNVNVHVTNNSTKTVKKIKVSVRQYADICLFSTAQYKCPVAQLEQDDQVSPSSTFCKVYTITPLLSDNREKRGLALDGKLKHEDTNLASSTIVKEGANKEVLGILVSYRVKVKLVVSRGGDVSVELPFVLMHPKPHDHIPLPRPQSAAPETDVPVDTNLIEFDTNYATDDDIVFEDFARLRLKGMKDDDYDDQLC

Assay [2] has as its target T1, human sphingosine-1-phosphate receptor 1 (S1P1). Briefly: Inhibition of cAMP production (HTRF cAMP HiRange), S1P1 CHO-K1 cells. In kind it is cell-based. The note with it: for Emax: CHO-K1, efficacy (SPAN) normalized to fingolimod, read-out: hS1P1 cAMP SPAN; for hS1P1 cAMP pEC50 / EC50: inhibition of cAMP production, S1P1 CHO-K1 cells; for EC50: read-out: hS1P1 cAMP pEC50 (converted). The method in brief:
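CHO-K1 cells stably co-expressing human S1P1 (C-terminal Prolink tag) and EA-β-arrestin2 were grown in AssayComplete Media 6 at 37° C. and 5% CO2, plated, and incubated overnight. Agonist-driven inhibition of intracellular cAMP was read by TR-FRET with the HTRF cAMP HiRange kit on a PheraStar reader. Potency is pEC50, and efficacy (SPAN) is normalized to fingolimod.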
Target sequence in this assay (P21453 whole entry, looked up, the tested form may be a part): as the sequence (P21453 whole entry, looked up, the tested form may be a part) above
(In general: cAMP levels reflect the balance of adenylyl cyclase and phosphodiesterase activity.)

Turning to `Cc1ccccc1-c1noc(-c2ccc3c(c2)nnn3C2CCCC2)n1` [Compound 175, 1-cyclopentyl-5-[3-(2-methylphenyl)-1,2,4-oxadiazol-5-yl]-1H-1,2,3-benzotriazole], in assay [1], the Emax was greater than 75% and the “hS1P1 B-arrestin2 pEC50” value is given as greater than 5. In addition, in assay [2], the Emax was greater than 75% and the “hS1P1 cAMP pEC50” value was greater than 6.5.

As to `CC(C)(O)Cn1nnc2cc(-c3nc(-c4cocn4)no3)ccc21` [Compound 570, 2-methyl-1-{5-[3-(1,3-oxazol-4-yl)-1,2,4-oxadiazol-5-yl]-1H-1,2,3-benzotriazol-1-yl}propan-2-ol], in assay [1], the Emax is less than 75% and the “hS1P1 B-arrestin2 pEC50” value was less than 5. Further, in assay [2], the Emax is less than 75% and the “hS1P1 cAMP pEC50” value was less than 6.5.

Take `Cc1cc(-c2nc(-c3ccc4c(c3)nnn4C(C)C)no2)cc(C)n1` [Compound 156, 5-(2,6-dimethylpyridin-4-yl)-3-(1-isopropyl-1H-benzo[d][1,2,3]triazol-5-yl)-1,2,4-oxadiazole]: in assay [1], the Emax was greater than 75% and the “hS1P1 B-arrestin2 pEC50” value is greater than 5. Moreover, in assay [2], the Emax is greater than 75% and the “hS1P1 cAMP pEC50” value is on record as greater than 6.5.

As to `CCC1(CC)CC(=O)c2cc(-c3nnc(-c4ccccc4OC)s3)ccc2O1` [Compound 178, 2,2-diethyl-6-(5-(2-methoxyphenyl)-1,3,4-thiadiazol-2-yl)chroman-4-one], in assay [1], the Emax is less than 75% and the “hS1P1 B-arrestin2 pEC50” value was greater than 5. Besides, in assay [2], the Emax is greater than 75% and the “hS1P1 cAMP pEC50” value is on record as less than 6.5.

Consider `COc1cccnc1-c1noc(-c2ccc3c(c2)nnn3C2CCCC2)n1` [Compound 203, 1-cyclopentyl-5-[3-(3-methoxypyridin-2-yl)-1,2,4-oxadiazol-5-yl]-1H-1,2,3-benzotriazole], for which, in assay [1], the Emax is greater than 75% and the “hS1P1 B-arrestin2 pEC50” value was less than 5. In addition, in assay [2], the Emax is less than 75% and the “hS1P1 cAMP pEC50” value was less than 6.5.

`CC(C)n1nnc2cc(-c3nc(-c4ccccc4)co3)ccc21` [Compound 294, 5-(4-phenyl-1,3-oxazol-2-yl)-1-(propan-2-yl)-1H-1,2,3-benzotriazole]: in assay [1], the Emax was greater than 75% and the “hS1P1 B-arrestin2 pEC50” value is less than 5. In assay [2], the Emax was less than 75% and the “hS1P1 cAMP pEC50” value is given as less than 6.5.

Regarding `CC(C)n1nnc2cc(-c3noc(-c4ccc(F)cc4)n3)ccc21` [Compound 255, 5-(4-fluorophenyl)-3-(1-isopropylbenzotriazol-5-yl)-1,2,4-oxadiazole], in assay [1], the Emax was less than 75% and the “hS1P1 B-arrestin2 pEC50” value was less than 5. In addition, in assay [2], the Emax was less than 75% and the “hS1P1 cAMP pEC50” value was less than 6.5.

`O=C1CC2(CCC(F)(F)CC2)Oc2ccc(-c3nc(-c4ccncc4)no3)cc21` [Compound 217, 4′,4′-difluoro-6-[3-(pyridin-4-yl)-1,2,4-oxadiazol-5-yl]-3,4-dihydrospiro[1-benzopyran-2,1′-cyclohexane]-4-one]: the “hS1P1 B-arrestin2 pEC50” value in assay [1] is recorded as less than 5. Further, the “hS1P1 cAMP pEC50” value in assay [2] is less than 6.5.

On to `CCC1(CC)CC(=O)c2cc(-c3nc(-c4cccnc4)ns3)ccc2O1` [Compound 309, 2,2-diethyl-6-(3-(pyridin-3-yl)-1,2,4-thiadiazol-5-yl)chroman-4-one], for which, in assay [1], the Emax is greater than 75% and the “hS1P1 B-arrestin2 pEC50” value is less than 5. In addition, in assay [2], the Emax was greater than 75% and the “hS1P1 cAMP pEC50” value is less than 6.5.

In the case of `CC(C)n1nnc2cc(-c3nc4cccc(Br)c4o3)ccc21` [Compound 429, 7-bromo-2-(1-isopropyl-1H-benzo[d][1,2,3]triazol-5-yl)benzo[d]oxazole], in assay [1], the “hS1P1 B-arrestin2 pEC50” value is given as less than 5. Besides, the “hS1P1 cAMP pEC50” value in assay [2] is less than 6.5.

For `Cc1cc(-c2noc(-c3ccc4c(c3)nnn4CC(C)(C)O)n2)c(C)o1` [Compound 493, 1-{5-[3-(2,5-dimethylfuran-3-yl)-1,2,4-oxadiazol-5-yl]-1H-1,2,3-benzotriazol-1-yl}-2-methylpropan-2-ol], in assay [1], the Emax was greater than 75% and the EC50 was greater than 10 µM. Moreover, in assay [2], the Emax is greater than 75% and the EC50 was greater than 0.316 µM.

For the compound `Clc1ncccc1-c1noc(-c2ccc3c(c2)nnn3C2CCCC2)n1` [Compound 198, 5-[3-(2-chloropyridin-3-yl)-1,2,4-oxadiazol-5-yl]-1-cyclopentyl-1H-1,2,3-benzotriazole], in assay [1], the Emax is less than 75% and the “hS1P1 B-arrestin2 pEC50” value is listed as greater than 5. In assay [2], the Emax is greater than 75% and the “hS1P1 cAMP pEC50” value is greater than 6.5.

For the compound `O=C(O)Cn1nnc2cc(-c3noc(-c4ccccc4Br)n3)ccc21` [Compound 195, 2-(5-(5-(2-bromophenyl)-1,2,4-oxadiazol-3-yl)-1H-benzo[d][1,2,3]triazol-1-yl)acetic acid], in assay [1], the Emax was less than 75% and the EC50 was greater than 10 µM. In assay [2], the Emax was less than 75% and the EC50 was greater than 0.316 µM.

As to `COc1ccccc1-c1nc(-c2ccc3c(c2)nnn3C(C)C)ns1` [Compound 138, 5-[5-(2-methoxyphenyl)-1,2,4-thiadiazol-3-yl]-1-(propan-2-yl)-1H-1,2,3-benzotriazole], in assay [1], the Emax is greater than 75% and the “hS1P1 B-arrestin2 pEC50” value is greater than 5. For the same compound, in assay [2], the Emax was greater than 75% and the “hS1P1 cAMP pEC50” value is on record as greater than 6.5.

Take `CCC1(CC)CC(=O)c2cc(-c3ncc(-c4ccccc4OC)cn3)ccc2O1` [Compound 594, 2,2-diethyl-6-(5-(2-methoxyphenyl)pyrimidin-2-yl)chroman-4-one]: the “hS1P1 B-arrestin2 pEC50” value in assay [1] was greater than 5. The “hS1P1 cAMP pEC50” value in assay [2] was greater than 6.5.

In the case of `COc1ccccc1-c1csc(-c2cnc3c(ccn3C(C)C)c2)n1` [Compound 401, 2-(1-isopropyl-1H-pyrrolo[2,3-b]pyridin-5-yl)-4-(2-methoxyphenyl)thiazole], in assay [1], the “hS1P1 B-arrestin2 pEC50” value is reported as less than 5. Further, the “hS1P1 cAMP pEC50” value in assay [2] is recorded as less than 6.5.

In the case of `CC(C)Oc1ccc(-c2ncc(-c3ccc4c(c3)nnn4C(C)C)cn2)cc1C#N` [Compound 595, 2-isopropoxy-5-(5-(1-isopropyl-1H-benzo[d][1,2,3]triazol-5-yl)pyrimidin-2-yl)benzonitrile], in assay [1], the “hS1P1 B-arrestin2 pEC50” value is greater than 5. Besides, the “hS1P1 cAMP pEC50” value in assay [2] is recorded as greater than 6.5.

Regarding `CCC1(CC)CC(=O)c2cc(-c3nc(-c4ccncc4C)no3)ccc2O1` [Compound 31, 2,2-diethyl-6-(3-(3-methylpyridin-4-yl)-1,2,4-oxadiazol-5-yl)chroman-4-one], in assay [1], the Emax was greater than 75% and the “hS1P1 B-arrestin2 pEC50” value is greater than 5. Besides, in assay [2], the Emax is greater than 75% and the “hS1P1 cAMP pEC50” value is on record as greater than 6.5.

For the compound `CC(C)n1nnc2cc(-c3noc(C4CCC4)n3)ccc21` [Compound 18, 5-(5-cyclobutyl-1,2,4-oxadiazol-3-yl)-1-(propan-2-yl)-1H-1,2,3-benzotriazole], the “hS1P1 B-arrestin2 pEC50” value in assay [1] was less than 5. The “hS1P1 cAMP pEC50” value in assay [2] is less than 6.5.

With `CCC1(CC)CC(=O)c2cc(-c3nc(-c4ccc(OC)cc4)no3)ccc2O1` [Compound 65, 2,2-diethyl-6-(3-(4-methoxyphenyl)-1,2,4-oxadiazol-5-yl)chroman-4-one], in assay [1], the Emax is less than 75% and the “hS1P1 B-arrestin2 pEC50” value is less than 5. Further, in assay [2], the Emax was less than 75% and the “hS1P1 cAMP pEC50” value was less than 6.5.

Turning to `Brc1ccccc1-c1nc(-c2ccc3c(c2)nnn3Cc2ccccc2)no1` [Compound 52, 3-(1-benzyl-1H-benzo[d][1,2,3]triazol-5-yl)-5-(2-bromophenyl)-1,2,4-oxadiazole], in assay [1], the “hS1P1 B-arrestin2 pEC50” value is less than 5. The “hS1P1 cAMP pEC50” value in assay [2] is given as less than 6.5.

Turning to `COc1ccc2nc(-c3ccc4c(c3)nnn4C(C)C)oc2c1` [Compound 426, 2-(1-isopropyl-1H-benzo[d][1,2,3]triazol-5-yl)-6-methoxybenzo[d]oxazole], in assay [1], the Emax was greater than 75% and the “hS1P1 B-arrestin2 pEC50” value is listed as less than 5. For the same compound, in assay [2], the Emax was greater than 75% and the “hS1P1 cAMP pEC50” value was greater than 6.5.

Turning to `Cc1ccccc1C(C)c1noc(-c2ccc3c(c2)nnn3CC(C)C)n1` (stereo not shown) [Compound 154, 5-{3-[1-(2-methylphenyl)ethyl]-1,2,4-oxadiazol-5-yl}-1-(2-methylpropyl)-1H-1,2,3-benzotriazole], the “hS1P1 B-arrestin2 pEC50” value in assay [1] is given as less than 5. In addition, the “hS1P1 cAMP pEC50” value in assay [2] is reported as less than 6.5.

In the case of `O=C1c2cc(-c3nc(-c4ccncc4)no3)ccc2OC(CO)(CO)C1Br` (stereo not shown) [Compound 483, 3-bromo-2,2-bis(hydroxymethyl)-6-[3-(pyridin-4-yl)-1,2,4-oxadiazol-5-yl]-3,4-dihydro-2H-1-benzopyran-4-one], the “hS1P1 B-arrestin2 pEC50” value in assay [1] is given as less than 5. The “hS1P1 cAMP pEC50” value in assay [2] is listed as less than 6.5.

Take `Brc1ccccc1-c1nc(-c2ccc3c(c2)nnn3Cc2ccccn2)no1` [Compound 45, 5-(2-bromophenyl)-3-(1-(pyridin-2-ylmethyl)-1H-benzo[d][1,2,3]triazol-5-yl)-1,2,4-oxadiazole]: the “hS1P1 B-arrestin2 pEC50” value in assay [1] is recorded as less than 5. For the same compound, the “hS1P1 cAMP pEC50” value in assay [2] is less than 6.5.

On to `COc1ccccc1-c1noc(-c2ccc3[nH]ncc3c2)n1` [Compound 371, 5-(1H-indazol-5-yl)-3-(2-methoxyphenyl)-1,2,4-oxadiazole], for which, in assay [1], the “hS1P1 B-arrestin2 pEC50” value is listed as less than 5. Moreover, the “hS1P1 cAMP pEC50” value in assay [2] was less than 6.5.
